In the test the target is T1, GST-tagged ROR gamma ligand binding domain (LBD) (Homo sapiens, UniProt P51449).
T1 construct: purchased Invitrogen
T1 sequence (P51449 269-508 limits assumed): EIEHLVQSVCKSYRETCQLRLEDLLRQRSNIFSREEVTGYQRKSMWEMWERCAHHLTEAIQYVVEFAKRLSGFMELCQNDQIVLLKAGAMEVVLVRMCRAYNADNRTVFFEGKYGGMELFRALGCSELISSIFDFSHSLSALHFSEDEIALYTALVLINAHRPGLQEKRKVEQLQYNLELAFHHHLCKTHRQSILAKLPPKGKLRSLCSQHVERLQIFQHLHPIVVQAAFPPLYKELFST
Briefly: TR-FRET assay for ROR gamma (LanthaScreen co-activator peptide recruitment). It counts as biochemical. Conditions: for inhibition at 1 µM: compound concentration 1 μM; for inhibition at 1 µM / inhibition at 10 µM: TR-FRET ratio 520/495, percent of control; for inhibition at 10 µM: compound concentration 10 μM; for IC50: from dose response curve, nonlinear regression, read-out: IC50 range. The source says: The compounds described herein were screened for ROR gamma modulator activity using the TR-FRET assay (LanthaScreen™ available from Invitrogen of Carlsbad, Calif.) as described in JBC 2011, 286, 26: 22707-10; and Drug Metabolism and Disposition 2009, 37, 10: 2069-78.
Binding of the co-activator peptide, causes an increase in the TR-FRET signal while binding of an antagonist decreases the recruitment of the co-activator peptide, causing a decrease in the TR-FRET signal compared to control with no compound. The assay was performed using a two-step procedure, pre-incubation step with the compound followed by the detection step on addition of the anti-GST tagged terbium (Tb) and fluorescein tagged fluorophores as the acceptor.
Test compounds or reference compounds such as T0901317 (Calbiochem) were dissolved in dimethylsulfoxide (DMSO) to prepare 10.0 mM stock solutions and diluted to the desired concentration. The final concentration of DMSO in the reaction was 4% (v/v). The assay mixture was prepared by mixing 10 nM of the GST-tagged ROR gamma ligand binding domain (LBD) in the assay buffer containing 25 mM HEPES (pH 7.4), 100 mM NaCl, 5 mM DTT and 0.01% BSA with or without the desired concentration of the compound. The reaction was incubated at 22° C. for 1 hour. The pre-incubation step was terminated by addition of the detection mixture containing 300 nM Fluorescein-D22 co-activator peptide and 10 nM lantha screen Tb-anti GST antibody into the reaction mixture.
After shaking for 5 minutes the reaction was further incubated for 1 hour at room temperature and read at 4° C. on an Infinite F500 reader as per the kit instructions (Invitrogen). The inhibition of test compound was calculated based on the TR-FRET ratio of 520/495. The activity was calculated as a percent of control reaction. IC50 values were calculated from dose response curve by nonlinear regression analysis using GraphPad Prism software.

The structures appear in SMILES notation.

`CCC(F)(F)c1ccc(CC(=O)Nc2ccc(-c3nccnc3NCc3ccccc3)cc2)cc1` [Example 57, N-(4-(3-(Benzylamino)pyrazin-2-yl)phenyl)-2-(4-(1,1-difluoropropyl)phenyl)acetamide]: the inhibition at 1 µM was determined as 69.4% and the inhibition at 10 µM was 85.2%.
On the same counts, the results for `CC(O)C(F)(F)c1ccc(CC(=O)Nc2ccc(-c3nccnc3N3CCC(F)(F)CC3)cc2)cc1` (stereo not shown) [Example 18, 2-(4-(1,1-Difluoro-2-hydroxypropyl)phenyl)-N-(4-(3-(4,4-difluoropiperidin-1-yl)pyrazin-2-yl)phenyl)acetamide] are 32.4% and 71.2%.
For `CCC(F)(F)c1ccc(CC(=O)Nc2ccc(-c3nccnc3-c3ccncc3)cc2)cc1` [Example 17, 2-(4-(1,1-Difluoropropyl)phenyl)-N-(4-(3-(pyridin-4-yl)pyrazin-2-yl)phenyl)acetamide], in that order: 60.5% and 74.4%.
With `CCC(F)(F)c1ccc(CC(=O)Nc2ccc(-c3nccnc3-c3ccc(C(F)(F)F)cc3)cc2)cc1` [Example 12, 2-(4-(1,1-Difluoropropyl)phenyl)-N-(4-(3-(4-(trifluoromethyl)phenyl)pyrazin-2-yl)phenyl)acetamide], the inhibition at 1 µM was found to be 85.6%, the inhibition at 10 µM was found to be 83% and the IC50 was less than 50 nM.
With `CCC(F)(F)c1ccc(CC(=O)Nc2ccc(-c3nccnc3N[C@@H](C)c3ccc(Cl)cc3)cc2)cc1` [Example 63, (S)-N-(4-(3-((1-(4-Chlorophenyl)ethyl)amino)pyrazin-2-yl)phenyl)-2-(4-(1,1-difluoropropyl)phenyl)acetamide], the inhibition at 1 µM was determined as 86.8%, the inhibition at 10 µM worked out at 91.2% and the IC50 lay within 50 to 100 nM.
For `CCC(F)(F)c1ccc(CC(=O)Nc2ccc(-c3nccnc3O[C@@H](C)c3ccccc3)cc2)cc1` [Example 80, (S)-2-(4-(1,1-Difluoropropyl)phenyl)-N-(4-(3-(1-phenylethoxy)pyrazin-2-yl)phenyl)acetamide], in that order: 69.5%, 86.3% and 100 to 500 nM.
On the same counts, the results for `CCC(F)(F)c1ccc(CC(=O)Nc2ccc(-c3nccnc3N[C@@H](C)c3ccc(F)cc3C)cc2)cc1` [Example 67, (S)-2-(4-(1,1-Difluoropropyl)phenyl)-N-(4-(3-((1-(4-fluoro-2-methylphenyl)ethyl)amino)pyrazin-2-yl)phenyl)acetamide] are 87.9%, 92.4% and less than 50 nM.
`CCc1ccccc1-c1nccnc1-c1ccc(NC(=O)Cc2ccc(C(F)(F)[C@H](C)O)cc2)cc1` [Example 52, (S)-2-(4-(1,1-difluoro-2-hydroxypropyl)phenyl)-N-(4-(3-(2-ethylphenyl)pyrazin-2-yl)phenyl)acetamide]: the inhibition at 1 µM came out at 78.6%, the inhibition at 10 µM was found to be 84% and the IC50 is less than 50 nM.
In the case of `CCc1ccccc1-c1nccnc1-c1ccc(NC(=O)Cc2ccc(C(F)(F)[C@@H](C)O)cc2)cc1` [Example 53, (R)-2-(4-(1,1-difluoro-2-hydroxypropyl)phenyl)-N-(4-(3-(2-ethylphenyl)pyrazin-2-yl)phenyl)acetamide], the inhibition at 1 µM is 70.5%, the inhibition at 10 µM worked out at 77% and the half-maximal inhibitory concentration (IC50) is less than 50 nM.
Take `CCC(F)(F)c1ccc(CC(=O)Nc2ccc(-c3nccnc3-c3ccc(=O)n(C)c3)cc2)cc1` [Example 25, 2-(4-(1,1-Difluoropropyl)phenyl)-N-(4-(3-(1-methyl-6-oxo-1,6-dihydropyridin-3-yl)pyrazin-2-yl)phenyl)acetamide]: the inhibition at 1 µM was determined as 18.9% and the inhibition at 10 µM turned out to be 59.7%.
Turning to `CC(O)C(F)(F)c1ccc(CC(=O)Nc2ccc(-c3nccnc3OCC3CCCCC3)cc2)cc1` (stereo not shown) [Example 93, N-(4-(3-(Cyclohexylmethoxy)pyrazin-2-yl)phenyl)-2-(4-(1,1-difluoro-2-hydroxypropyl)phenyl)acetamide], the inhibition at 1 µM worked out at 86.6%, the inhibition at 10 µM was 94.1% and the IC50 lay within 100 to 500 nM.
Regarding `CCC(F)(F)c1ccc(CC(=O)Nc2ccc(-c3nccnc3N3CCN(C)CC3)cc2)cc1` [Example 32, 2-(4-(1,1-Difluoropropyl)phenyl)-N-(4-(3-(4-methylpiperazin-1-yl)pyrazin-2-yl)phenyl)acetamide], the inhibition at 1 µM was determined as 15.3% and the inhibition at 10 µM worked out at 65.1%.
`CCC(F)(F)c1ccc(CC(=O)Nc2ccc(-c3nccnc3N[C@@H](C)c3ccc(F)cc3Cl)cc2)cc1` [Example 70, (S)-N-(4-(3-((1-(2-Chloro-4-fluorophenyl)ethyl)amino)pyrazin-2-yl)phenyl)-2-(4-(1,1-difluoropropyl)phenyl)acetamide]: the inhibition at 1 µM came out at 94.1%, the inhibition at 10 µM came out at 93.8% and the IC50 is less than 50 nM.
Take `CCC(F)(F)c1ccc(CC(=O)Nc2ccc(-c3nccnc3OCc3ccc(F)cc3Cl)cc2)cc1` [Example 77, N-(4-(3-((2-Chloro-4-fluorobenzyl)oxy)pyrazin-2-yl)phenyl)-2-(4-(1,1-difluoropropyl)phenyl)acetamide]: the inhibition at 1 µM amounted to 80.5%, the inhibition at 10 µM came to 73.7% and the IC50 is less than 50 nM.
On the same counts, the results for `CCC(F)(F)c1ccc(CC(=O)Nc2ccc(-c3ncccc3-c3ccc(Cl)cc3)cc2)cc1` [Example 7, N-(4-(3-(4-Chlorophenyl)pyridin-2-yl)phenyl)-2-(4-(1,1-difluoropropyl)phenyl)acetamide] are 83%, 86.2% and less than 50 nM.
For `CCC(F)(F)c1ccc(CC(=O)Nc2ccc(-c3nccnc3N(C)[C@@H](C)c3ccc(Cl)cc3)cc2)cc1` [Example 65, (S)-N-(4-(3-((1-(4-Chlorophenyl)ethyl)(methyl)amino)pyrazin-2-yl)phenyl)-2-(4-(1,1-difluoropropyl)phenyl)acetamide], in that order: 76.1%, 83.2% and 100 to 500 nM.
For `CCC(F)(F)c1ccc(CC(=O)Nc2ccc(-c3nccnc3-c3ccc(F)cc3F)cc2)cc1` [Example 10, N-(4-(3-(2,4-Difluorophenyl)pyrazin-2-yl)phenyl)-2-(4-(1,1-difluoropropyl)phenyl)acetamide], in that order: 78.2%, 83% and 50 to 100 nM.
Take `COCC(F)(F)c1ccc(CC(=O)Nc2ccc(-c3nccnc3-c3ccc(Cl)cc3)cc2)cc1` [Example 3, N-(4-(3-(4-Chlorophenyl)pyrazin-2-yl)phenyl)-2-(4-(1,1-difluoro-2-methoxyethyl)phenyl)acetamide]: the inhibition at 1 µM turned out to be 74%, the inhibition at 10 µM was 84.8% and the IC50 lay in the range of 50 to 100 nM.
For `CCC(F)(F)c1ccc(CC(=O)Nc2ccc(-c3nccnc3-c3ccccc3Cl)cc2)cc1` [Example 5, N-(4-(3-(2-Chlorophenyl)pyrazin-2-yl)phenyl)-2-(4-(1,1-difluoropropyl)phenyl)acetamide], in that order: 81.5%, 84.4% and less than 50 nM.
In the case of `CCC(F)(F)c1ccc(CC(=O)Nc2ccc(-c3nccnc3N[C@@H](C)c3ccccc3Cl)cc2)cc1` [Example 66, (S)-N-(4-(3-((1-(2-Chlorophenyl)ethyl)amino)pyrazin-2-yl)phenyl)-2-(4-(1,1-difluoropropyl)phenyl)acetamide], the inhibition at 1 µM was found to be 88.4%, the inhibition at 10 µM was 90.2% and the half-inhibitory concentration (IC50) is less than 50 nM.
For `CC(O)C(F)(F)c1ccc(CC(=O)Nc2ccc(-c3nccnc3N[C@@H](C)c3ccccc3Cl)cc2F)cc1` (stereo partly drawn) [Example 73, N-(4-(3-(((S)-1-(2-Chlorophenyl)ethyl)amino)pyrazin-2-yl)-2-fluorophenyl)-2-(4-(1,1-difluoro-2-hydroxypropyl)phenyl)acetamide], in that order: 78.5%, 89.2% and 100 to 500 nM.
For `CC(O)C(F)(F)c1ccc(CC(=O)Nc2ccc(-c3nccnc3N[C@@H](C)c3ccc(Cl)cc3)cc2)cc1` (stereo partly drawn) [Example 72, N-(4-(3-(((S)-1-(4-Chlorophenyl)ethyl)amino)pyrazin-2-yl)phenyl)-2-(4-(1,1-difluoro-2-hydroxypropyl)phenyl)acetamide], in that order: 86.9%, 93.4% and less than 50 nM.
